Experimental data from a melting point compilation (Tetko et al.; mined from patent text by program, amines drawn as free bases though some values may be those of a salt).

| Structure (SMILES) | melting point [°C] |
| --- | --- |
| O=C1c2ccccc2S(=O)(=O)N1CBr | 155 to 157 |
| O=C(O)CCCC1CCN(CCOC(c2ccc(F)cc2)c2ccc(F)cc2)CC1 | 145 to 147 |
| CS(=O)(=O)c1ccc(-c2ccccc2[N+](=O)[O-])cc1 | 178 |
| CCC1(c2ccc(=O)[nH]n2)CCCCC1 | 138 to 140 |
| CC(C)CCn1cn[nH]c1=O | 78 to 79 |
| Cc1nc(N2CCCC(CO)C2)c2nc(-c3ccccc3)cc-2[nH]1 (centres undefined) | 255 to 256 |
| CCS(=O)(=O)N1C[C@H](C)N(C(=O)[C@@](C)(O)C(F)(F)F)C[C@H]1C | 142 to 144 |
| CC(C)(C=O)Cc1cc(C(C)(C)C)c(O)c(C(C)(C)C)c1 | 72 to 74 |
| CC(=O)SC[C@@H](C(=O)N[C@H](CC(C)C)c1nnn[nH]1)C(F)(F)F | 180 to 184 |
| Nc1ccc(Cl)c(N=C2NCCN2)c1 | 154 to 155 |
| CSc1cccc(CNC(=O)c2nc3scc(COCc4ccc(C(=O)O)cc4)c3c(=O)[nH]2)c1 | 252 to 254 |
| O=C(c1ccc(O)c(Cc2ccc(=O)[nH]n2)c1)c1c(Cl)cc(Cl)cc1Cl | 258 |
| O=C(O)c1cccc(-c2ccc3c(c2)C(c2ccc(Cl)cc2Cl)CCO3)c1 (centres undefined) | 223 to 224 |
| NC(=O)NC(=O)c1ccccn1 | 183 to 185 |
| Nc1c2c(nc3ccccc13)CCCC2N1CCOCC1 (centres undefined) | 215 to 217 |
| O=C1CCC(c2ccccc2)(c2ccccc2)[C@@H]2CN(C(=O)Cc3c(Cl)cccc3Cl)C[C@H]12 (racemic) | 201 |
| COC(COC(C)=O)C1=CCC2C3CCC4=CC(=O)CCC4(C)C3CCC12C (centres undefined) | 115 to 157 |
| Cc1nc2cc3c(cc2[nH]1)NC(=O)C3(C)C | > 300 |
| N#Cc1nc(Cl)c(Cl)c(NN)c1Cl | 178 to 181 |
| CC(C)C[C@H](NC(=O)OC(C)(C)C)[C@@H](O)c1ncnn1C | 144 to 145 |
| O=C1NCCCN1CCCN(Cc1ccccc1)CC1CCc2ccccc2O1 (centres undefined) | 94.7 |
| CC(C)C(NS(=O)(=O)c1ccc(Cl)s1)c1ncnn1Cc1ccccc1 (centres undefined) | 138 to 139 |

| Structure (SMILES) | melting point [°C] |
| --- | --- |
| O=c1[nH]c2cscc2c(=O)n1CCN1CCC(=C(c2ccc(F)cc2)c2ccc(F)cc2)CC1 | 204 to 206 |
| CC1(Cn2c(=O)oc3ccc(Br)cc32)Cn2cc([N+](=O)[O-])nc2O1 (centres undefined) | 243 to 246 |
| CCS[C@@H]1c2ccn3c(C)c(C)nc3c2N[C@H](c2ccccc2)[C@H]1O | 220 to 223 |
| CC1(C)COP(=O)(Cc2ccc([N+](=O)[O-])cc2)OC1 | 176 to 177 |
| O=C(O)CCCCC(=O)NC1C=CCCCC1 (centres undefined) | 132 to 133 |
| Oc1c(I)cc(-c2c3ccccc3cc3sc4ccccc4c23)cc1I | 213 to 214 |
| O=[N+]([O-])c1ccc(CN(CCO)CCO)cc1 | 74 to 75 |
| CC1ON(C)C(=O)C1=Cc1cc(C(C)(C)C)c(O)c(C(C)(C)C)c1 (centres undefined) | 147 to 150 |
| NS(=O)(=O)CCCCCCl | 62 |
| CC12CC=C3C(CCC4(CCSc5ncccn5)CC(O)CCC34C)C1CCC2O (centres undefined) | 156 |
| CCCc1cc(C=O)c(O)cc1O | 92.8 to 93.6 |
| COc1cc(-c2c(Cl)c(CN3C(=O)CCC3=O)nc3sc4c(c23)CCN(C(C)=O)C4)ccc1O | 273 to 275 |
| NC(=O)c1cc(OCCNCC(O)c2ccccc2)ccc1O (centres undefined) | 166 to 172 |
| CC(=O)NC(Cc1cccc(C(=O)OC(C)(C)C)c1)C(=O)OCc1ccccc1 (centres undefined) | 164 to 166 |
| CC(NC(=O)c1cc(Cl)cc(Br)c1NC(=O)c1cc(Br)nn1-c1ncccc1Cl)C1CC1 (centres undefined) | 244 to 247 |
| COc1cc(OC(C)C)ccc1-c1nc(-c2ccc(OC(C)C)cc2O)nc(-c2ccc(OC(C)C)cc2O)n1 | 185 to 188 |
| CCCC[C@H](NC(=O)[C@H](CC(C)C)NC(=O)COc1ccc(OC)cc1)C(=O)CSCc1ccco1 | 86 to 88 |
| COc1ccc(-c2c(Cl)c(CN3CCN(C(C)=O)CC3)nc3sc4c(c23)CCN(Cc2ccccc2)C4)cc1OC | 183 to 184 |
| Cc1ccc(N)c(C)c1C1OCCO1 | 100 to 103 |
| O=C1CCCc2c(Cl)cccc2-c2ccccc21 | 118 |
| O=c1[nH]c2ccc(-c3cccc(Cl)c3)cc2s1 | 195 to 196 |
| O=C1Nc2ccccc2C(c2ccccc2)CC1Br (centres undefined) | 191 to 192 |

| Structure (SMILES) | melting point [°C] |
| --- | --- |
| O=C(O)CC1(C(=O)OCc2ccccc2)C(=O)N(Cc2ccc(Cl)c(Cl)c2)C(=O)c2cccn21 (centres undefined) | 134 to 136 |
| CC(C)(C)OC(=O)N1CCC(Oc2ccccc2C(C)(C)C)C1 (centres undefined) | 81 to 82 |
| Nc1cc(=O)n(Cc2cccc(Cl)c2)[nH]1 | 132 |
| O=S(=O)(Oc1cccc(OS(=O)(=O)C(F)(F)F)c1OS(=O)(=O)C(F)(F)F)C(F)(F)F | 47.5 to 48.5 |
| COc1ccc(OC)c2c1COC(C(=O)O)C2 (centres undefined) | 164 to 166 |
| Fc1ccc(C(c2ccc(OCc3ccccc3)cc2)C(c2ccccc2)C(F)(F)F)cc1 (centres undefined) | 111 to 114 |
| CN1C(=O)N(c2ccccc2F)C(=O)C1=CC1CCCCC1 | 131 to 137 |
| Cn1nc(-c2ccc(Cl)cc2)c2c1-c1ccccc1C2 | 176 |
| Cc1n[nH]c2c1C(=O)CC(c1ccccc1O)C2 (centres undefined) | 252 to 255 |
| O=C(CCCN1CCN(c2cc3ccccc3cn2)CC1)c1ccc(F)cc1 | 148 to 150 |
| CCn1c(=O)n(C)c(=O)c2c(C)onc21 | 88 to 89 |
| CC(C)c1ccc(C(=O)CCCCl)cc1 | 35 to 37 |
| CC(C)CC1N=C(c2ccccc2)c2cc(Cl)ccc2NC1=O (centres undefined) | 213 |
| C#Cc1cccc(NC(=O)c2cc(-c3ccc(F)cc3F)ccc2O)c1 | 215 to 216 |
| CCOC(=O)c1ncn2c1CN=C(Cl)c1cc(OC)ccc1-2 | 186 |
| CC(C)(C(=O)c1ccccc1)S(=O)(=O)c1ccccc1 | 70 |
| CC(=O)NCC1CN(c2ccc(N3CCN(c4nnc(C(N)=O)s4)C(F)C3)cc2)C(=O)O1 (centres undefined) | 230 to 232 |
| CN1C(=O)C2(COc3cc4c(cc32)OCCO4)c2c(NC(=O)C3CCCCC3)cccc21 (centres undefined) | 96 to 98 |
| O=C1C=C(c2c[nH]c3ccc(O)cc23)C(=O)N1 | 292 to 298 |
| C/C(=C/c1ccc(C(=O)O)cc1)c1cc2c(cc1C)CCC(C)(C)CC2 | 223 to 225 |
| COc1c(C)cc(N2CCN(c3ccc([N+](=O)[O-])cc3)CC2)cc1C | 135 |
| CN1CCN(C2=Nc3ccc(Cl)cc3Cn3cccc32)CC1 | 186 to 188 |

Now from value to compound:

| melting point [°C] | Structure (SMILES) |
| --- | --- |
| 180 | CCOC(=O)c1[nH]cc2c1NC1=C(C(=O)CCC1)C2c1ccc(Sc2nc3cc(Cl)c(Cl)cc3[nH]2)o1 (centres undefined) |
| 172 to 180 | CC(C)(C)c1cc(I)c(O)c(CNS(=O)(=O)O)c1 |
| 195 | CCOc1cc2c(cc1OC(C)=O)C(=O)CC1C2CCC2(C)C(OC(C)=O)CCC12 (centres undefined) |
| 200 to 201 | Cc1ccccc1-c1cc(N2CCS(=O)(=O)CC2)ncc1N(C)C(=O)C(C)(C)c1cc(C(F)(F)F)cc(C(F)(F)F)c1 |
| 104 to 106 | CCCc1nc(N2CCc3ccccc3CC2)c(C#N)c(=O)n1CC(F)(F)F |
| 132 to 134 | O=C(NCCC1CCN(c2noc3cc(Cl)ccc23)CC1)c1nsc2ccccc12 |
| 85 | CCCCc1ccc(-c2ccc(CCc3ccc(C(F)(F)F)cc3)cc2)cc1 |
| 254 | Cc1cc(-c2ccc(C(F)(F)F)nc2)nc(-c2cccc(-c3cccc(S(N)(=O)=O)c3)n2)n1 |
| 240 | Cc1ccc(S(=O)(=O)NC(C)(C)CO)cc1NC(=O)c1cnn2c(C(F)(F)F)cc(-c3ccc(C(F)(F)F)cc3)nc12 |
| 175 to 178 | COc1cc(OC)nc(NC(=O)NS(=O)(=O)c2cscc2C)n1 |
| 186 | Cc1cc(SCc2ccc(-c3ccc(C(F)(F)F)cn3)cc2)c2c(c1OCC(=O)O)CCC2 |
| 169 to 172 | COc1cc(/C=C/C=C/C(=O)NCCN2CCC(c3c[nH]c4ccccc34)CC2)cc(OC)c1OC(C)=O |
| 149 to 150 | Cc1oc(-c2ccccc2)nc1COc1ccc(Cn2cc(CCC(=O)O)c(-c3ccc(C(F)(F)F)cc3)n2)cc1 |
| 253 | COc1ccc(S(=O)(=O)N2C(=O)C(NC(C)=O)(c3ccccc3)c3cc(Cl)ccc32)c(OC)c1 (centres undefined) |
| 177 to 178 | CCOCc1nc2c(N)nc3cc(CCCO)ccc3c2n1CC(C)(C)O |
| 171 | COc1ccc(CCC(=O)c2ccc(O)cc2O)c(OC)c1C |
| 272 to 273 | O=C(O)c1cccc(-c2cc(-c3ccc(C(F)(F)F)cc3)no2)c1 |

| melting point [°C] | Structure (SMILES) |
| --- | --- |
| 132 to 133 | C[C@]1(CN2CCN(C(=O)OCC=Cc3ccc(C(F)(F)F)cc3)CC2)Cn2cc([N+](=O)[O-])nc2O1 |
| 196 to 198 | COc1ccc(CNc2cc3c(Nc4ccc5c(cnn5Cc5cccc(F)c5)c4)ncnc3cn2)cc1 |
| 206 to 207 | COc1ccc(C(=O)Nc2cc(NC(=O)c3cccc(OCC(=O)O)c3)ccc2C)cc1OC |
| 178 | CC(=O)c1[nH]c2cc(Cl)cc(Cl)c2c1C |
| 80 to 82 | FC(F)(F)CNC(=S)NCc1ccc(C(F)(F)F)cc1 |
| 49.7 to 50.9 | COc1cc2c3c(c1)c(=O)c(Cc1cccnc1)cn3-c1cc(Br)ccc1O2 |
| 129 to 131 | COc1cc(N)ccc1-c1cnn(C)c1 |
| 211 to 213 | Cn1c(Cl)nc2c3ncc(Cl)cc3ccc21 |
| 155 to 156 | CC(=O)NCC1CC(c2ccc(-n3ccnc3)c(F)c2)=NO1 (centres undefined) |
| 108 to 109 | COCCNC(=S)n1nc(Oc2ncc(C(F)(F)F)cc2Cl)cc1C |
| 161 to 162 | Cn1cc(-c2cc3cccnc3[nH]2)c2cc(C(=O)NC(C)(C)CO)ccc21 |
| 102 | CCCCCOc1ccc(CCOc2ccc(/C=C(\OCC)C(=O)O)cc2OCCCC)cc1F |
| 168 | COc1ccc(-c2ccc(C(=O)Nc3cc4ncc(CN5CCCCCC5)cc4cc3C)c(F)c2)cc1 |
| 296 | CC(C)(C)OC(=O)Nc1ccc2nc(-c3cccnc3)nn2c1 |
| 194 to 196 | Cn1nc2c(N)nc3ccccc3c2c1CC(C)(C)NC(=O)c1ccccc1 |
| 124 to 129 | NCc1cccc(OCCC2Oc3ccccc3N(Cc3cccc(Cl)c3)C2=O)c1 (centres undefined) |
